21 compounds from ChEMBL document CHEMBL1811889, “Quinoline-4-methyl esters as human nonpancreatic secretory phospholipase A₂ inhibitors” (Bioorg Med Chem, 2011) can be followed below.

What is called IC50 is the concentration that inhibits the measured activity by half.

One experiment deals with T1, Phospholipase A2, membrane associated (Homo sapiens, UniProt P14555).
T1 sequence (P14555 whole entry): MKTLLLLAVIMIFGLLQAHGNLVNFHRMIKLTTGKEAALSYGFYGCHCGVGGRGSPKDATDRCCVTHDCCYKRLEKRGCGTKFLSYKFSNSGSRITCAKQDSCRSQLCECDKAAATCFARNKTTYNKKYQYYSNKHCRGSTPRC
Description: Inhibition of human non-pancreatic sPLA2 using 1,2-dimyristoyl-sn-glycero-3-phosphocholine substrate after 5 mins by continuous fluorescence assay.
Details: not given; call rule not given here
In the case of `COC(=O)c1c2c(nc3ccc(Cl)cc13)CCCC2`, the IC50 entry is recorded as “Not Active”.

Regarding `COC(=O)c1c2c(nc3ccccc13)CCCC2`, the IC50 result was “Not Active”.

With `COC(=O)c1c2c(nc3ccc(F)cc13)CCCC2`, the IC50 result is listed as “Not Active”.

With `CCCCCOc1ccc(-c2cc(C(=O)OC)c3cc(OC)ccc3n2)cc1`, the IC50 result was “Not Active”.

As to `CCCCCCOc1ccc(-c2cc(C(=O)OC)c3cc(OC)ccc3n2)cc1`, the IC50 entry is on record as “Not Active”.

The experiment is the same for the next values; noted with them: read-out: IC50.
As for `COC(=O)c1cc(-c2ccc(OC)cc2)nc2ccc(Cl)cc12`, the IC50 stood at 8.1 µM.

`COC(=O)c1cc(CCc2ccccc2)nc2ccc(Cl)cc12`: the IC50 stood at 1.8 µM.

Consider `COC(=O)c1c(-c2ccccc2)c(C)nc2ccc(Cl)cc12`, for which the IC50 came to 2.9 µM.

As to `COC(=O)c1c(Cc2ccccc2)c(C)nc2ccc(Cl)cc12`, the IC50 was determined as 2.8 µM.

Turning to `COC(=O)c1cc(Cc2ccccc2OC)nc2ccc(F)cc12`, the IC50 worked out at 2.3 µM.

Turning to `COC(=O)c1cc(-c2ccc(OC)cc2)nc2ccc(F)cc12`, the IC50 worked out at 6 µM.

Turning to `COC(=O)c1c(Cc2ccccc2)c(C)nc2ccc(F)cc12`, the IC50 is 16 µM.

In the case of `COC(=O)c1cc(CCc2ccccc2)nc2ccc(F)cc12`, the IC50 was found to be 12 µM.

As to `COC(=O)c1c(Cc2ccccc2)c(C)nc2ccc(OC)cc12`, the IC50 is 34 µM.

Take `COC(=O)c1cc(CCc2ccccc2)nc2ccc(OC)cc12`: the IC50 stood at 1.5 µM.

With `CCCCOc1ccc(-c2cc(C(=O)OC)c3ccccc3n2)cc1`, the IC50 was found to be 44 µM.

`COC(=O)c1cc(-c2ccccc2)nc2ccc(OC)cc12`: the IC50 came to 2 µM.

Take `COC(=O)c1cc(-c2ccc(OC)cc2)nc2ccc(OC)cc12`: the IC50 worked out at 15 µM.

Turning to `CCCOc1ccc(-c2cc(C(=O)OC)c3cc(OC)ccc3n2)cc1`, the 50% inhibitory concentration (IC50) is 27 µM.

In the case of `CCCCOc1ccc(-c2cc(C(=O)OC)c3cc(OC)ccc3n2)cc1`, the IC50 stood at 57 µM.

As to `COc1ccc2c(c1)c(CC(N)=O)c(C)n2Cc1ccccc1`, the IC50 was 1 µM.
